Experiments:
Assay type in all cases: in vivo
Townes S/S mice [1] = experiment: Hemoglobin concentration in blood of SCD-model mice; details: for effect on hemoglobin concentration in blood: i.p. once per day D0 to D15 (compound 001 185 mg/kg, L-Gln 180 mg/kg), under normoxia and hypoxia, vs vehicle or L-Gln
Method: (§1) The purpose of this study is to evaluate the effects of i.p. daily administration of compound 001 at 185 mg/kg and/or L-Glutamine (L-Gln) at 180 mg/Kg on hematological parameters and RBC sickling. L-Gln has received approval by the FDA for the treatment of sickle cell disease (SCD) patients in the United States as it has been shown that L-Gln administration reduces the severity and frequency of VOCs. Townes S/S mice on a 129/B6 mixed genetic background aged 8-12 weeks. The powder of compound 001 (185 mg/kg) was dissolved in vehicle (the solution is used at room temperature for maximum 1 day). The powder of L-Glutamine (180 mg/kg) was dissolved in vehicle (the solution is used at room temperature for maximum 1 day). In Townes S/S mice, mouse alpha- and beta-globin gene loci are deleted and replaced by human genes coding for the alpha- and beta-globin. When carrying two copies of the beta S allele, mice develop a human sickle disease phenotype with sickle-shaped red blood cells are seen in blood smears. Group description: • Group 1: Vehicle PBS (i.p.) • Group 2: Compound 001 (185 mg/kg) • Group 3 L-Gln (180 mg/kg) • Group 4: Compound 001 (185 mg/kg)+L-Gln (180 mg/kg) Mice were i.p treated with Compound 001, L-Gln or the combination of compound 001+L-Gln during all the experiment (D0 to D15) once per day. Last injection occurred 24 hours before sacrifice. Retro-orbital blood collection was performed at the inclusion and at D15. Ex-vivo blood collected were assessed for blood parameters and RBC sickling ex vivo under normoxia (20% Oz) and hypoxia (1% Oz for 0.5 hour).

Townes S/S mice [2] = experiment: Concentration of red blood cells in blood of SCD-model mice; details: for effect on concentration of RBC in blood: i.p. once per day D0 to D15 (compound 001 185 mg/kg, L-Gln 180 mg/kg), under normoxia and hypoxia, vs vehicle or L-Gln
Method: as §1

reticulocytes = experiment: Reticulocyte counts using Reticount by FACS, blood of treated SCD mice; details: Townes S/S mice, 185 mg/kg/d i.p.
Method: The aim of the present study was to evaluate, the effects of i.p. daily administration of compounds 001, 010 and 011 at 185 mg/kg as modulator of red blood cell sickling and fetal hemoglobin expression in erythroid cells and its potential role in therapy for sickle cell disease on mouse model of SCD. Townes S/S mice on a 129/B6 mixed genetic background. The powders of compounds 001, 010 and 011 (185 mg/kg) were dissolved in vehicle (the solution is used at room temperature for maximum 1 day). A fresh sample for each administration was prepared every day except the week-end (the solution is prepared on Saturday and is used on Saturday and Sunday). In Townes S/S mice, mouse alpha- and beta-globin gene loci are deleted and replaced by human alpha- and beta-globin genes. When carrying two copies of the beta S allele, mice develop a human sickle disease phenotype with sickle-shaped red blood cells are seen in blood smears. Group description: • Group 1: Vehicle (i.p.) • Group 2: compound 001 (185 mg/kg) • Group 3 compound 010 (185 mg/kg) • Group 4: compound 011 (185 mg/kg) Mice were i.p treated with compounds 001, 010 and 011 during all the experiment (D0 to D15) once per day. […] Ex-vivo blood collected were assessed for percentage of F-cells using antibodies against fetal hemoglobin by FACS and reticulocyte counts using reticount by FACS. Red blood cells sickling was assessed under hypoxia.

F-cells = experiment: Percentage of F-cells using antibodies against fetal hemoglobin by FACS, blood of treated SCD mice; details: Townes S/S mice; for effect on proportion of circulating erythroid cells expressing fetal hemoglobin (conclusion): 185 mg/kg i.p. daily D0 to D15
Method: (§2) The aim of the present study was to evaluate, the effects of i.p. daily administration of compounds 001, 010 and 011 at 185 mg/kg as modulator of red blood cell sickling and fetal hemoglobin expression in erythroid cells and its potential role in therapy for sickle cell disease on mouse model of SCD.
(§3) Townes S/S mice on a 129/B6 mixed genetic background.
(§4) The powders of compounds 001, 010 and 011 (185 mg/kg) were dissolved in vehicle (the solution is used at room temperature for maximum 1 day). A fresh sample for each administration was prepared every day except the week-end (the solution is prepared on Saturday and is used on Saturday and Sunday).
(§5) In Townes S/S mice, mouse alpha- and beta-globin gene loci are deleted and replaced by human alpha- and beta-globin genes. When carrying two copies of the beta S allele, mice develop a human sickle disease phenotype with sickle-shaped red blood cells are seen in blood smears.
(§6) Group description: • Group 1: Vehicle (i.p.) • Group 2: compound 001 (185 mg/kg) • Group 3 compound 010 (185 mg/kg) • Group 4: compound 011 (185 mg/kg)
(§7) Mice were i.p treated with compounds 001, 010 and 011 during all the experiment (D0 to D15) once per day. Last injection occurred 24 hours before sacrifice.
(§8) Retro-orbital blood collection was performed at the inclusion D0 and at D5, D10 and D15 through facial vein bleeding.
(§9) Ex-vivo blood collected were assessed for percentage of F-cells using antibodies against fetal hemoglobin by FACS and reticulocyte counts using reticount by FACS. Red blood cells sickling was assessed under hypoxia.

Townes S/S mice [3] = experiment: Hematocrit percentage in blood of SCD-model mice; details: for effect on hematocrit percentage in blood: i.p. once per day D0 to D15 (compound 001 185 mg/kg, L-Gln 180 mg/kg), under normoxia and hypoxia, vs vehicle or L-Gln
Method: as §1, with “hour). […] III. CONCLUSION” for “hour).”

SS RBCs = experiment: RBC sickling under hypoxia ex vivo, RBCs from treated SCD mice; details: Townes S/S mice; for effect on red blood cell sickling under hypoxia (conclusion): 185 mg/kg i.p. daily D0 to D15; for percentage of sickling cells at D0 / percentage of sickling cells after 15 days treatment: 185 mg/kg/d i.p., RBCs ex vivo 30 minutes hypoxia (1% Oz)
Method: as §2, §3, §4, §5, §6, §7, §8, §9
FIGS. 3, 4 and 5 show the ability of compounds 001 (FIG. 3), 010 (FIG. 4) and 011 (FIG. 5) to prevent sickling of SS RBCs at a 1% Oz. SS RBCs from treated mice and collected at D0, D5, D10 and D15 were submitted to hypoxia for 30 minutes in a hypoxic chamber (1% Oz). Percentage of sickling RBCs was then assessed for each time point with compounds 001, 010 and 011.

[4] = 185 mg/kg/d i.p., hypoxia (1% Oz for 0.5 hour) vs normoxia

| Compound | effect of hypoxia on hemoglobin in blood of treated mice (Townes S/S mice [1]; [4]) | effect on hemoglobin concentration in blood (Townes S/S mice [1]) | effect of hypoxia on RBC in blood of treated mice (Townes S/S mice [2]; [4]) | effect on concentration of RBC in blood (Townes S/S mice [2]) | percentage of reticulocytes after treatment (reticulocytes; over the 15 days treatment) [%] | percentage of reticulocytes, starting value (reticulocytes; value before the 15 days treatment) [%] | effect on proportion of circulating erythroid cells expressing fetal hemoglobin (conclusion) (F-cells) | mean F-cells after treatment (F-cells; 185 mg/kg/d i.p., over the 15 days treatment) [%] | mean F-cells, starting value (F-cells; 185 mg/kg/d i.p., value before the 15 days treatment) | effect of hypoxia on hematocrit percentage in blood of treated mice (Townes S/S mice [3]; [4]) | effect on hematocrit percentage in blood (Townes S/S mice [3]) | effect on red blood cell sickling under hypoxia (conclusion) (SS RBCs) | percentage of sickling cells at D0 (SS RBCs) [%] | percentage of sickling cells after 15 days treatment (SS RBCs) |
| --- | --- | --- | --- | --- | --- | --- | --- | --- | --- | --- | --- | --- | --- | --- |
| NC(=O)c1ccc[n+]([C@@H]2O[C@H](COP(=O)([O-])O)[C@@H](O)[C@H]2O)c1 (stereo in doubt) [Compound 001, NMN] | did not result in a decrease | significant increase | did not result in a decrease | significant increase | 30 | 70 | increase the proportion of circulating erythroid cells expressing fetal hemoglobin | 8 | less than 5% | did not result in a decrease | significant increase | reduce red blood cell sickling under hypoxia | 40 | less than 10% |
| NC(=O)CC[C@H](N)C(=O)O [L-Gln, L-Glutamine, reference compound] | – | did not affect | – | did not affect | – | – | – | – | – | – | did not affect | – | – | – |
| α,α-diNMN [Compound 011] | – | – | – | – | – | – | increase the proportion of circulating erythroid cells expressing fetal hemoglobin | – | – | – | – | reduce red blood cell sickling under hypoxia | 31 | 20% |
| α,β-diNMN [Compound 010] | – | – | – | – | – | – | increase the proportion of circulating erythroid cells expressing fetal hemoglobin | – | – | – | – | reduce red blood cell sickling under hypoxia | 32 | less than 15% |

Reference: US12403153B2, “Nicotinamide mononucleotide derivatives and use thereof in the treatment and prevention of a red blood cell disorder” (Nuvamid SA, priority 2020, dated 2025)
